From ChEMBL document CHEMBL4411296, “Design and development of Isatin-triazole hydrazones as potential inhibitors of microtubule affinity-regulating kinase 4 for the therapeutic management of cell proliferation and metastasis” (Eur J Med Chem, 2019)

What was measured:
Type in all cases: functional
CCRF-CEM = assay: Growth inhibition of human CCRF-CEM cells assessed as cell growth at 10 uM after 48 hrs by sulforhodamine B assay relative to control; details: read-out: Activity
K562 = assay: Growth inhibition of human K562 cells assessed as cell growth at 10 uM after 48 hrs by sulforhodamine B assay relative to control; details: K562, 48 h, read-out: Activity
RPMI-8226 = assay: Growth inhibition of human RPMI8226 cells assessed as cell growth at 10 uM after 48 hrs by sulforhodamine B assay relative to control; details: RPMI-8226, 48 h, read-out: Activity
SR = assay: Growth inhibition of human SR cells assessed as cell growth at 10 uM after 48 hrs by sulforhodamine B assay relative to control; details: read-out: Activity
A549 = assay: Growth inhibition of human A549/ATCC cells assessed as cell growth at 10 uM after 48 hrs by sulforhodamine B assay relative to control; details: A549, 48 h, read-out: Activity
EKVX = assay: Growth inhibition of human EKVX cells assessed as cell growth at 10 uM after 48 hrs by sulforhodamine B assay relative to control; details: read-out: Activity
NCI-H23 = assay: Growth inhibition of human NCI-H23 cells assessed as cell growth at 10 uM after 48 hrs by sulforhodamine B assay relative to control; details: NCI-H23, 48 h, read-out: Activity
NCI-H322M = assay: Growth inhibition of human NCI-H322M cells assessed as cell growth at 10 uM after 48 hrs by sulforhodamine B assay relative to control; details: read-out: Activity
HCT-116 = assay: Growth inhibition of human HCT116 cells assessed as cell growth at 10 uM after 48 hrs by sulforhodamine B assay relative to control; details: HCT-116, 48 h, read-out: Activity
HCT-15 = assay: Growth inhibition of human HCT15 cells assessed as cell growth at 10 uM after 48 hrs by sulforhodamine B assay relative to control; details: HCT-15, 48 h, read-out: Activity
HT-29 = assay: Growth inhibition of human HT-29 cells assessed as cell growth at 10 uM after 48 hrs by sulforhodamine B assay relative to control; details: HT-29, 48 h, read-out: Activity
KM12 = assay: Growth inhibition of human KM12 cells assessed as cell growth at 10 uM after 48 hrs by sulforhodamine B assay relative to control; details: KM12, 48 h, read-out: Activity
SW-620 = assay: Growth inhibition of human SW620 cells assessed as cell growth at 10 uM after 48 hrs by sulforhodamine B assay relative to control; details: SW-620, 48 h, read-out: Activity
SF-268 = assay: Growth inhibition of human SF268 cells assessed as cell growth at 10 uM after 48 hrs by sulforhodamine B assay relative to control; details: SF-268, 48 h, read-out: Activity
SF-295 = assay: Growth inhibition of human SF295 cells assessed as cell growth at 10 uM after 48 hrs by sulforhodamine B assay relative to control; details: SF-295, 48 h, read-out: Activity
SNB-75 = assay: Growth inhibition of human SNB75 cells assessed as cell growth at 10 uM after 48 hrs by sulforhodamine B assay relative to control; details: SNB-75, 48 h, read-out: Activity
LOX IMVI = assay: Growth inhibition of human LOXIMVI cells assessed as cell growth at 10 uM after 48 hrs by sulforhodamine B assay relative to control; details: read-out: Activity
M14 = assay: Growth inhibition of human M14 cells assessed as cell growth at 10 uM after 48 hrs by sulforhodamine B assay relative to control; details: M14, 48 h, read-out: Activity
SK-MEL-28 = assay: Growth inhibition of human SK-MEL-28 cells assessed as cell growth at 10 uM after 48 hrs by sulforhodamine B assay relative to control; details: SK-MEL-28, 48 h, read-out: Activity
SK-MEL-5 = assay: Growth inhibition of human SK-MEL-5 cells assessed as cell growth at 10 uM after 48 hrs by sulforhodamine B assay relative to control; details: SK-MEL-5, 48 h, read-out: Activity
UACC-257 = assay: Growth inhibition of human UACC257 cells assessed as cell growth at 10 uM after 48 hrs by sulforhodamine B assay relative to control; details: UACC-257, 48 h, read-out: Activity
IGROV-1 = assay: Growth inhibition of human IGROV1 cells assessed as cell growth at 10 uM after 48 hrs by sulforhodamine B assay relative to control; details: IGROV-1, 48 h, read-out: Activity
OVCAR-4 = assay: Growth inhibition of human OVCAR4 cells assessed as cell growth at 10 uM after 48 hrs by sulforhodamine B assay relative to control; details: OVCAR-4, 48 h, read-out: Activity
OVCAR-8 = assay: Growth inhibition of human OVCAR8 cells assessed as cell growth at 10 uM after 48 hrs by sulforhodamine B assay relative to control; details: OVCAR-8, 48 h, read-out: Activity
NCI/ADR-RES = assay: Growth inhibition of human NCI/ADR-RES cells assessed as cell growth at 10 uM after 48 hrs by sulforhodamine B assay relative to control; details: read-out: Activity
SK-OV-3 = assay: Growth inhibition of human SKOV3 cells assessed as cell growth at 10 uM after 48 hrs by sulforhodamine B assay relative to control; details: SK-OV-3, 48 h, read-out: Activity
A498 = assay: Growth inhibition of human A498 cells assessed as cell growth at 10 uM after 48 hrs by sulforhodamine B assay relative to control; details: A498, 48 h, read-out: Activity
ACHN = assay: Growth inhibition of human ACHN cells assessed as cell growth at 10 uM after 48 hrs by sulforhodamine B assay relative to control; details: read-out: Activity
SN12C = assay: Growth inhibition of human SN12C cells assessed as cell growth at 10 uM after 48 hrs by sulforhodamine B assay relative to control; details: read-out: Activity
TK-10 = assay: Growth inhibition of human TK10 cells assessed as cell growth at 10 uM after 48 hrs by sulforhodamine B assay relative to control; details: TK-10, 48 h, read-out: Activity
UO-31 = assay: Growth inhibition of human UO31 cells assessed as cell growth at 10 uM after 48 hrs by sulforhodamine B assay relative to control; details: UO-31, 48 h, read-out: Activity
MDA-MB-231 = assay: Growth inhibition of human MDA-MB-231 cells assessed as cell growth at 10 uM after 48 hrs by sulforhodamine B assay relative to control; details: MDA-MB-231, 48 h, read-out: Activity
Hs-578T = assay: Growth inhibition of human Hs 578T cells assessed as cell growth at 10 uM after 48 hrs by sulforhodamine B assay relative to control; details: read-out: Activity
BT-549 = assay: Growth inhibition of human BT549 cells assessed as cell growth at 10 uM after 48 hrs by sulforhodamine B assay relative to control; details: BT-549, 48 h, read-out: Activity
T47D = assay: Growth inhibition of human T47D cells assessed as cell growth at 10 uM after 48 hrs by sulforhodamine B assay relative to control; details: read-out: Activity

Structure (SMILES)	growth at 10 µM (CCRF-CEM)	growth at 10 µM (K562)	growth at 10 µM (RPMI-8226)	growth at 10 µM (SR)	growth at 10 µM (A549)	growth at 10 µM (EKVX)	growth at 10 µM (NCI-H23)	growth at 10 µM (NCI-H322M)	growth at 10 µM (HCT-116)	growth at 10 µM (HCT-15)	growth at 10 µM (HT-29)	growth at 10 µM (KM12)	growth at 10 µM (SW-620)	growth at 10 µM (SF-268)	growth at 10 µM (SF-295)	growth at 10 µM (SNB-75)	growth at 10 µM (LOX IMVI)	growth at 10 µM (M14)	growth at 10 µM (SK-MEL-28)	growth at 10 µM (SK-MEL-5)	further results
COc1ccc(Cn2cc(C(=O)N/N=C3/C(=O)Nc4ccccc43)nn2)cc1	104%	90.5%	105%	94.8%	98.4%	104%	103%	97.9%	109%	105%	99.2%	101%	101%	101%	103%	95.3%	102%	103%	104%	102%	growth at 10 µM (UACC-257): 102%; growth at 10 µM (IGROV-1): 97.5%; growth at 10 µM (OVCAR-4): 108%; growth at 10 µM (OVCAR-8): 97.8%; growth at 10 µM (NCI/ADR-RES): 97.2%; growth at 10 µM (SK-OV-3): 113%; growth at 10 µM (A498): 96%; growth at 10 µM (ACHN): 107%; growth at 10 µM (SN12C): 96.3%; growth at 10 µM (TK-10): 107%; growth at 10 µM (UO-31): 84.8%; growth at 10 µM (MDA-MB-231): 101%; growth at 10 µM (Hs-578T): 109%; growth at 10 µM (BT-549): 115%; growth at 10 µM (T47D): 113%
COc1ccc(Cn2cc(C(=O)N/N=C3/C(=O)Nc4c(C)cccc43)nn2)cc1	82.8%	63.2%	90%	76.6%	85.3%	107%	89.1%	89.6%	7.1%	68%	67.5%	95.6%	57.5%	87.3%	111%	27.3%	75.3%	71.9%	94.9%	93.8%	growth at 10 µM (UACC-257): 93.7%; growth at 10 µM (IGROV-1): 84.8%; growth at 10 µM (OVCAR-4): -28.2%; growth at 10 µM (OVCAR-8): 67.6%; growth at 10 µM (NCI/ADR-RES): 71.2%; growth at 10 µM (SK-OV-3): 110%; growth at 10 µM (A498): 101%; growth at 10 µM (ACHN): 38.2%; growth at 10 µM (SN12C): 62.1%; growth at 10 µM (TK-10): 56.1%; growth at 10 µM (UO-31): 14.8%; growth at 10 µM (MDA-MB-231): 51%; growth at 10 µM (Hs-578T): 84.1%; growth at 10 µM (BT-549): 103%; growth at 10 µM (T47D): 81%
